“Also recorded” adds a separate entry of the source.
How the values were obtained:
[1] = target: T1, Porcine pancreatic α-amylase (PPA) (Sus scrofa, UniProt P00690); assay: Porcine pancreatic α-amylase inhibition assay, chromogenic DNSA method (primary screening); format: biochemical; conditions: for IC50: starch 1% w/v, pH 6.9, 37°C; for PPA inhibition (result in words): inhibitors 13.8–214.3 μM
T1 construct: purchased SRL, Mumbai, India
T1 sequence (P00690 16-511): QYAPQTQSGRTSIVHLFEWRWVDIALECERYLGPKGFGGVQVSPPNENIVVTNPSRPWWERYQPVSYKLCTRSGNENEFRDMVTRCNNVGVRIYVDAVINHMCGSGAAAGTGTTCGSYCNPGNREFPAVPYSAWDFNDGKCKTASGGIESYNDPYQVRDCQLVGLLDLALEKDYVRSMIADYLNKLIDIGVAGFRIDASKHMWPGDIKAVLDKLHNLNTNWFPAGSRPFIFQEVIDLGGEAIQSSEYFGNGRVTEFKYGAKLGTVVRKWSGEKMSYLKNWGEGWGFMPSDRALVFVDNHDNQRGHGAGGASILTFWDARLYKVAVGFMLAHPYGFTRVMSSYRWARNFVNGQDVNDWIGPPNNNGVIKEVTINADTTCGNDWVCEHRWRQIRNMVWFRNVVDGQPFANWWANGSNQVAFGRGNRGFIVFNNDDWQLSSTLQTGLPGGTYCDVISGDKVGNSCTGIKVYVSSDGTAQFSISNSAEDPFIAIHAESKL
Procedure: The inhibition assay was performed using the chromogenic DNSA method. PPA was used for preliminary screening of α-amylase inhibitors. […] Moreover a high degree gene sequence similarity (~ 90%) exists between human salivary α-amylase (HSA) and PPA as reported by (Buisson et al 1987). Brayer et al (1995) have reported 97% primary sequence similarity between human salivary and human pancreatic α-amylases and a 70% structural similarity between PPA and HPA [11]. Thus, a high degree of similarity between PPA and HPA allows us to use it as the enzyme for screening inhibitors.
In brief, the total assay mixture consisting of 0.02 M sodium phosphate buffer, pH6.9, (containing 6 mM NaCl), 0.2–0.25 U of PPA and inhibitors (13.8–214.3 μM) in DMSO was incubated at 37°C for 10 min. After pre-incubation, the substrate starch (1%, w/v) solution was added to the reaction mixture and further incubated for 15 min. The control PPA (0.21 U) without any inhibitor represented 100% enzyme activity. One unit of enzyme activity is defined as the amount of enzyme required to release one micromole of maltose from starch/maltopentaose per min under the assay conditions. The other quantifiers calculated were: % Relative enzyme activity = (enzyme activity of test/enzyme activity of control)*100. % inhibition = (100 − % relative enzyme activity).
The IC50 values were determined from plots of percent inhibition versus inhibitor concentration and calculated by logarithmic regression analysis. To eliminate the absorbance produced by the compound, appropriate controls were included. The known PPA/HPA inhibitor acarbose was used as a positive control at a concentration range of 10–50 μM.

[2] = target: T2, secreted pancreatic α-amylase of AR42J cells (Rattus norvegicus, UniProt P00689); assay: Bioactivity: inhibition of secreted pancreatic α-amylase in dexamethasone-induced AR42J cells, incl. starch load test (DNSA); format: cell-based; conditions: for Amylase inhibition at the cytotoxic IC50 concentration: 24 h, at 11.1, 13.4 and 4.1 μM respectively
T2 construct: host or cells: AR42J rat pancreatic acinar cells, induced with 10 nM dexamethasone
T2 sequence (P00689 16-508): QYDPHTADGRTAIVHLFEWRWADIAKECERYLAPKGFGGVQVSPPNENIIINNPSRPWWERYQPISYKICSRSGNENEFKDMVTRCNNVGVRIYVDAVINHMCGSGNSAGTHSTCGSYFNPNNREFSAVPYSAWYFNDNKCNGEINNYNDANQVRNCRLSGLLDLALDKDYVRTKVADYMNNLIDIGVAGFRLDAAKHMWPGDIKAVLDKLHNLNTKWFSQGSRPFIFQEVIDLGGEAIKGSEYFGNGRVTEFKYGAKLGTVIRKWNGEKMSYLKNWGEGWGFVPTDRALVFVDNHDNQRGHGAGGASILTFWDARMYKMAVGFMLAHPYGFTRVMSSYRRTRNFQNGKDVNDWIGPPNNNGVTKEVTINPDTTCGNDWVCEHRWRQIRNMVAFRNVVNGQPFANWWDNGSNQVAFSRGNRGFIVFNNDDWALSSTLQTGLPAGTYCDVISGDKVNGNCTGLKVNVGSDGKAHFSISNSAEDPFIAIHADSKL
Excerpt: Appropriate medium and DMSO controls were simultaneously set up.

[3] = target: T3, Human pancreatic α-amylase (HPA) (Homo sapiens, UniProt P04746); assay: Human pancreatic α-amylase inhibition and stoichiometry (DNSA); format: biochemical
T3 construct: purchased Sigma Aldrich, USA
T3 sequence (P04746 16-511): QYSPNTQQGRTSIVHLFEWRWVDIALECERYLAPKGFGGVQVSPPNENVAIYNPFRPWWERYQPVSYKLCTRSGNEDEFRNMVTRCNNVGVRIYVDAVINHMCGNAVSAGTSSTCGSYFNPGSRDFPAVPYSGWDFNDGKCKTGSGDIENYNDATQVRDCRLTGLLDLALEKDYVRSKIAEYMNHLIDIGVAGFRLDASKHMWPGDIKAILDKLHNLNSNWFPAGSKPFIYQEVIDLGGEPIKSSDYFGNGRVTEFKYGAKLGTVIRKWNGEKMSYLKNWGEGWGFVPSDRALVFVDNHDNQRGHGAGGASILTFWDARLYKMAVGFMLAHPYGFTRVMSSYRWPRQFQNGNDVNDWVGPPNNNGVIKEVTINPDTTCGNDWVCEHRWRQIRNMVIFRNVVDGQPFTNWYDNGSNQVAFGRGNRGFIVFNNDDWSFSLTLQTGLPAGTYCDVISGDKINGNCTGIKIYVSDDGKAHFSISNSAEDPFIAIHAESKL
Excerpt: The control HPA (0.25 U) without inhibitors represented 100% enzyme activity.

[4] = target: T3, Human pancreatic α-amylase (HPA); assay: HPA inhibition kinetics (Michaelis-Menten, Lineweaver-Burk, secondary plots); format: biochemical
Procedure: The mode of inhibition of HPA by the lead inhibitors azadiradione and gedunin were determined using Michaelis-Menton and Lineweaver-Burk equations. Starch (1–5mg ml^-1) and maltopentaose (0.05–0.4mM) were incubated with inhibitors-HPA for 10 and 2.5 min, respectively and the residual enzyme activity determined by DNSA method for starch and Nelson-Somogyi’s method for maltopentaose.The inhibitor constants(K i) were determined on the basis of mode of inhibition.

[5] = target: T3, Human pancreatic α-amylase (HPA); assay: Ligand binding to HPA by fluorescence quenching titration, thermodynamic parameters
Procedure: Ligand binding studies using fluorescence measurements of HPA were carried as described in our earlier report. […] Non-linear and linear regression analyses were used to analyze the data.
The thermodynamic parameters, association constants (K a), dissociation constant (K d) and Gibbs free energy (ΔG°) of binding for azadiradione and gedunin were determined at various temperatures 25°C to 60°C by fluorescence quenching studies.

[6] = Cytotoxicity in AR42J cell line (MTT); conditions: rat, AR42J pancreatic acinar cells
Procedure: (§1) Cells were seeded at 2×10^4 cells well^-1 onto 96 wells culture dish. […] Appropriate medium and DMSO controls were simultaneously set up. […] At the end of 24 h incubation period the culture media was removed from the samples and fresh culture media (100 μl) containing 20 μl of MTT tetrazolium bromide (5 mg ml^-1) added and incubated for 3 h at 37°C. Metabolically active cells reduce MTT to insoluble purple formazan dye crystals, which were dissolved by addition of 300 μl DMSO solution at the end of the incubation period and quantitated at 550 nm [34].

[7] = test system: AR42J rat pancreatic acinar cells; assay: Cytotoxicity in AR42J cell line (MTT); conditions: AR42J
Procedure: as §1

PPA = test system: PPA; design: method as in PMID 22975503; conditions: ref [25],[26], cited from earlier work; for IC50: value in brackets
HPA = target: HPA; design: method as in PMID 15736945; conditions: ref [60], cited from earlier work
[8] = linear van't Hoff plot, 298–333 K

SMILES: CC(=O)O[C@@H]1C[C@H]2C(C)(C)C(=O)C=C[C@]2(C)[C@H]2CC[C@@]3(C)[C@H](c4ccoc4)OC(=O)[C@H]4O[C@]43[C@@]21C [gedunin]
- IC50 [1]: 72.2 µM
- Secreted amylase inhibition in starch load test ([2]; AR42J, 0.5% (w/v) starch, up to two hours): 31.7%
- Amylase inhibition at the cytotoxic IC50 concentration ([2]; AR42J): 69.2%
- inhibition at 3.3 µM ([2]; AR-42J, AR42J, 3.3 μM): 53.4%
- Stoichiometry of HPA inactivation ([3]; percentage inhibition versus molar ratio of HPA and inhibitor, HPA 14.85 μM): 0.68
- IC50 ([3]; starch substrate, sigmoidal fit): 68.4 µM
- Ki ([4]; maltopentaose as substrate, secondary plots): 18.6 µM
- Apparent K i ′ ([4]; starch as substrate, secondary plots): 37.4 µM
- Mode of HPA inhibition ([4]; substrates starch and maltopentaose, Lineweaver-Burk): mixed
- -ΔG° ([5]; 298 K): 21.16 k J mol^-1
- K a ([5]; 298 K): 5100 M⁻¹
- Kd ([5]; 298 K): 200 ± 9 µM
- -ΔG° ([5]; 303 K): 20.57 k J mol^-1
- K a ([5]; 303 K): 3500 M⁻¹
- Kd ([5]; 303 K): 300 ± 3 µM
- -ΔG° ([5]; 308 K): 16.4 k J mol^-1
- K a ([5]; 308 K): 600 M⁻¹
- Kd ([5]; 308 K): 1600 ± 1 µM
- -ΔG° ([5]; 313 K): 12.4 k J mol^-1
- K a ([5]; 313 K): 120 M⁻¹
- Kd ([5]; 313 K): 8300 ± 50 µM
- -ΔG° ([5]; 323K): 11.8 k J mol^-1
- K a ([5]; 323K): 80 M⁻¹
- Kd ([5]; 323K): 12200 ± 600 µM
- -ΔG° ([5]; 333K): 7.4 k J mol^-1
- K a ([5]; 333K): 10 M⁻¹
- Kd ([5]; 333K): 67200 ± 800 µM
- Maximal quenching of intrinsic HPA fluorescence ([5]; 350 nm, azadiradione 3.9–118 μM, gedunin 2.0–51.86 μM): 19%
- Maximum ΔG° of binding ([5]; calculated from binding constants, maximal affinity at 298 K): -5.057 kcal/mol
- Enthalpy (ΔHvH) [5, 8]: -33.44 kcal/mol
- Entropy (-ΔS) [5, 8]: 397.84 J mol^-1K^-1
- IC50 at 24 h [6]: 13.4 µM
- Cell death ([7]; 3.3 μM): 8.6%
- Cell morphology versus controls ([7]; azadiradione 3.5 μM, gedunin 3.3 μM (Fig 3)): no morphological change

SMILES: C/C=C(\C)C(=O)O[C@H]1C[C@@H](OC(C)=O)[C@@]2(C(=O)OC)CO[C@H]3[C@@H](O)[C@@](C)([C@]45O[C@@]4(C)[C@@H]4C[C@H]5O[C@@H]5OC=C[C@@]54O)[C@H]4[C@]1(CO[C@]4(O)C(=O)OC)[C@@H]32 [azadirachtin A]
- PPA inhibition (result in words) [1]: No inhibition; also recorded: no bioactivity

SMILES: CC(=O)O[C@@H]1C[C@H]2C(C)(C)C(=O)C=C[C@]2(C)[C@H]2CC[C@@]3(C)[C@H](c4ccoc4)C(=O)[C@H]4O[C@]43[C@@]21C [epoxyazadiradione]
- IC50 [1]: 100 µM
- Amylase inhibition at the cytotoxic IC50 concentration ([2]; AR42J): 53.2%
- inhibition at 1.7 µM ([2]; AR-42J, read-out: Pancreatic (secreted) α-amylase inhibition): 31.8%
- IC50 at 24 h [6]: 4.1 µM
- Cell death ([7]; 1.7 μM): 2.7%

SMILES: COC(=O)C[C@H]1[C@]2(C)C3=C(C)[C@H](c4ccoc4)C[C@H]3O[C@@H]2[C@H](OC(C)=O)[C@@H]2[C@]1(C)C(=O)C=C[C@@]2(C)C(=O)OC [nimbin]
- PPA inhibition (result in words) [1]: No inhibition; also recorded: no bioactivity

SMILES: CC=C(C)C(=O)OC1CC(O)C23COC(C(=O)OC)C2C(C)(C24OC2(C)C2CC4OC4OC=CC42O)C(O)C2OCC1(C(=O)OC)C23 (centres unmarked) [azadirachtin B]
- PPA inhibition (result in words) [1]: No inhibition; also recorded: no bioactivity

SMILES: CC(C)=CC(=O)O[C@H]1C[C@@H](O)[C@@]2(C)CO[C@H]3[C@@H](O)[C@@]4(C)C5=CC[C@@H](c6ccoc6)[C@]5(C)CC[C@@H]4[C@]1(C)[C@@H]32 [meliacinolin]
- IC50 with PPA (PPA): 46.74 µg/mL
- IC50 (PPA): 91.6 µM

SMILES: C[C@H]1O[C@H](O[C@H]2[C@H](O)[C@@H](O)[C@@H](O[C@H]3[C@H](O)[C@@H](O)C(O)O[C@@H]3CO)O[C@@H]2CO)[C@H](O)[C@@H](O)[C@@H]1N[C@H]1C=C(CO)[C@@H](O)[C@H](O)[C@H]1O (some centres unmarked) [Acarbose, acarbose]
- Ki (HPA; 2-chloro-4-nitrophenyl-α-maltotrioside as substrate): 22 µM
- Mode of HPA inhibition (HPA): noncompetitive

SMILES: C/C=C(/C)C(=O)O[C@H]1C[C@@H](OC(C)=O)[C@@]2(C)CO[C@H]3[C@H]4O[C@@H]5C[C@@H](c6ccoc6)C(C)=C5[C@@]4(C)[C@H](CC(=O)OC)[C@]1(C)[C@@H]32 [salannin]
- PPA inhibition (result in words) [1]: No inhibition; also recorded: no bioactivity

SMILES: CC(=O)O[C@@H]1C[C@H](OC(=O)C=C(C)C)[C@@]2(C)[C@H]3[C@@H](OC[C@]13C)[C@@H](O)[C@@]1(C)C3=CC[C@@H]([C@@H]4COC(=O)C4)[C@]3(C)CC[C@@H]12 [azadirachtolide]
- IC50 with PPA (PPA): 55.8 µg/mL
- IC50 (PPA): 94.1 µM

SMILES: CC(=O)O[C@@H]1C[C@H]2C(C)(C)C(=O)C=C[C@]2(C)[C@H]2CC[C@]3(C)C(=CC[C@H]3c3ccoc3)[C@@]21C [azadirone]
- PPA inhibition (result in words) [1]: No inhibition; also recorded: no activity was observed

From article PMC4607367, “Gedunin and Azadiradione: Human Pancreatic Alpha-Amylase Inhibiting Limonoids from Neem (Azadirachta indica) as Anti-Diabetic Agents” (PLoS ONE, 2015)
